According to patent US9498478B2, “Spiro aminic compounds with NK1 antagonist activity” (Rottapharm Biotech Srl, priority 2011, dated 2016):

Target: T1, human NK1 receptor (Homo sapiens, UniProt P25103)
T1 construct: human NK1 receptor endogenously expressed in U373 cells; endogenous in cells; host or cells: U373 (human U373MG astrocytoma) cells
Assay: Antagonist activity at the human NK1 receptor endogenously expressed in U373 cells, agonist-induced cytosolic Ca2+ mobilization (fluorimetric)
Format: cell-based
Conditions: U373 MG, percent inhibition of control response to 3 nM [Sar9,Met(O2)11]-SP at compound concentration 10 μM, read-out: NK1 % inh @10 μM
Protocol: Evaluation of the antagonist activity of compounds at the human NK1 receptor endogenously expressed in U373 cells was determined by measuring their effect on agonist-induced cytosolic Ca2+ ion mobilization using a fluorimetric detection method.
The cells were suspended in DMEM buffer (Invitrogen), then distributed in microplates at a density of 1.10^4 cells/well. The fluorescent probe (Fluo4 NW, Invitrogen) mixed with probenicid in HBSS buffer (Invitrogen) complemented with 20 mM Hepes (Invitrogen) (pH 7.4) was then added into each well and equilibrated with the cells for 60 min at 37° C. then 15 min at 22° C. Thereafter, the assay plates were positioned in a microplate reader (CellLux, PerkinElmer) which was used for the addition of the test compound, reference antagonist or HBSS buffer then 5 min later 3 nM [Sar9,Met(O2)11]-SP or HBSS buffer (basal control), and the measurements of changes in fluorescence intensity which varies proportionally to the free cytosolic Ca2+ ion concentration.
The compounds, dissolved in DMSO and diluted in the medium, have been analysed in the 1 nM-1 μM concentration range (every concentration in duplicate). The antagonistic activity vs receptor NK1 of invention compounds has been expressed as pKb (co-logarithm of the apparent dissociation constant calculated by using the modified Cheng Prusoff equation) or alternatively as a percent of inhibition of the control response to 3 nM [Sar^9,Met(O2)^11]-SP at a compound concentration of 10 μM.
The standard reference antagonist was L 733,060, which was tested in each experiment at several concentrations to generate a concentration-response curve from which its IC50 value is calculated. • Bibliographic reference: EISTETTER, H. R., MILLS, A., BREWSTER, R., ALOUANI, S., RAMBOSSON, C. and KAWASHIMA, E. (1992), Functional characterization of neurokinin-1 receptor on human U373MG astrocytoma cells, Glia, 6: 89.

T1 sequence (P25103 whole entry): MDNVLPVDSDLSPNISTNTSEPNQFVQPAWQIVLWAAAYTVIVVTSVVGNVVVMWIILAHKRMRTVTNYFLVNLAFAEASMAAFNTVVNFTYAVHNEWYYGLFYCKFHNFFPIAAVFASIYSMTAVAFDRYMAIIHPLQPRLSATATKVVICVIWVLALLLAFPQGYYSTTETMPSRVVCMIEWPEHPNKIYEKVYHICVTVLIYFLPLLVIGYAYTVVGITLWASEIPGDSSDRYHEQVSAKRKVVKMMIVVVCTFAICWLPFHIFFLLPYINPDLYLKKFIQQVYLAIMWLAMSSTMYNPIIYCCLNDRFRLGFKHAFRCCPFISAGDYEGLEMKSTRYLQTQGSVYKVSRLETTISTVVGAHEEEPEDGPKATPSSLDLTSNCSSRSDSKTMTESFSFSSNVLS

Row | inhibition at 10 µM | SMILES
1 | 67% | Cc1ccc(-n2nccn2)c(C(=O)N2CCC3(CC3)C[C@H]2CNc2ccc(C(F)(F)F)cn2)c1 [Compound 5, (S)-(5-methyl-2-(2H-1,2,3-triazol-2-yl)phenyl)(5-(((5-(trifluoromethyl)pyridin-2-yl)amino)methyl)-6-azaspiro[2.5]octan-6-yl)methanone]
2 | 87% | Cc1ccc(-c2ccccn2)c(C(=O)N2CCC3(CC3)C[C@H]2CNc2ccc(Cl)cn2)c1 [Compound 2, (S)-(5-(((5-chloropyridin-2-yl)amino)methyl)-6-azaspiro[2.5]octan-6-yl)(5-methyl-2-(pyridin-2-yl)phenyl)methanone]
3 | 65% | O=C(c1cc(F)ccc1-c1ccccn1)N1CCC2(CC2)C[C@H]1CNc1ccc(Cl)cn1 [Compound 3, (S)-(5-(((5-chloropyridin-2-yl)amino)methyl)-6-azaspiro[2.5]octan-6-yl)(5-fluoro-2-(pyridin-2-yl)phenyl)methanone]
4 | 87% | Cc1ccc(-c2ncccn2)c(C(=O)N2CCC3(CC3)C[C@H]2CNc2ccc(C(F)(F)F)cn2)c1 [Compound 7, (S)-(5-methyl-2-(pyrimidin-2-yl)phenyl)(5-(((5-(trifluoromethyl)pyridin-2-yl)amino)methyl)-6-azaspiro[2.5]octan-6-yl)methanone]
5 | 61% | O=C(c1cc(F)ccc1-n1nccn1)N1CCC2(CC2)C[C@H]1CNc1ccc(Cl)cn1 [Compound 4, (S)-(5-(((5-chloropyridin-2-yl)amino)methyl)-6-azaspiro[2.5]octan-6-yl)(5-fluoro-2-(2H-1,2,3-triazol-2-yl)phenyl)methanone]
6 | 61% | Cc1ccc(-n2nccn2)c(C(=O)N2CCC3(CC3)C[C@H]2CNc2ccc(Cl)cn2)c1 [Compound 6, (S)(5-((5-chloropyridin-2-ylamino)methyl)-6-azaspiro[2.5]octan-6-yl)(5-methyl-2-(2H-1,2,3-triazol-2-yl)phenyl)methanone]

Same assay, conditions: co-logarithm of apparent dissociation constant by modified Cheng Prusoff equation, agonist 3 nM [Sar9,Met(O2)11]-SP, read-out: pKb NK1 (converted)

Row | Kb | SMILES
7 | 2.51 nM | O=C(c1cc(F)ccc1-c1ncccn1)N1CCC2(CC2)C[C@H]1CNc1ccc(Cl)cn1 [Compound 9, (S)-(5-(((5-chloropyridin-2-yl)amino)methyl)-6-azaspiro[2.5]octan-6-yl)(5-fluoro-2-(pyrimidin-2-yl)phenyl)methanone]
8 | 5.01 nM | Cc1ccc(-c2ncccn2)c(C(=O)N2CCC3(CC3)C[C@H]2CNc2ccc(Cl)cn2)c1 [Compound 8, (S)-(5-(((5-chloropyridin-2-yl)amino)methyl)-6-azaspiro[2.5]octan-6-yl)(5-methyl-2-(pyrimidin-2-yl)phenyl)methanone]
9 | 2.51 nM | O=C(c1cc(Cl)ccc1-c1ncccn1)N1CCC2(CC2)C[C@H]1CNc1ccc(Cl)cn1 [Compound 1, (S)-(5-chloro-2-(pyrimidin-2-yl)phenyl)(5-(((5-chloropyridin-2-yl)amino)methyl)-6-azaspiro[2.5]octan-6-yl)methanone]
